# Key:
# [1] = test system: primary human cells (3C, 4H, LPS, SAg, BT, BF4T, BE3C, CASM3C, HDF3CGF, KF3CT, MyoF, /Mphg systems); assay: Study CSM002-01-b: biomarker readouts in primary human cell systems, compounds in PBS; type: cell-based; details: for TF / TM: hemostasis-related activity
# Experimental: Profiling was performed using the following processes: […]
# [2] = test system: primary human cells (3C, 4H, LPS, SAg, BT, BF4T, BE3C, CASM3C, HDF3CGF, KF3CT, MyoF, /Mphg systems); assay: Study CSM001-01-b: biomarker readouts in primary human cell systems, compounds in DMSO; type: cell-based
# Experimental: Profiling was performed using the following processes:
# (§1) All test compounds were dissolved in dimethyl sulfoxide (DMSO).
# primary human cells = assay: Study CSM001-01-b: overt cytotoxicity (SRB, Alamar Blue); type: cell-based; details: DMSO, >50% reduction in cellular protein levels (SRB) and/or PBMC viability
# Experimental: An annotated assay profile was prepared for each test agent. Biomarker readouts are annotated when two or more consecutive concentrations are changed in the same direction, relative to the vehicle control, outside of the significance envelope and with an effect size of at least 10% (more than 0.05 log ratio units). Biomarker activities are annotated as “modulated” when they are increased in some system(s) and decreased in other system(s). If applicable, a benchmark overlay was performed at the top non-cytotoxic concentration. Results of a similarity search (all test agents) and clustering (at least three test agents) were determined. […] A table of overtly cytotoxic test agents was also prepared which are test agents with a >50% reduction in cellular protein levels (sulforhodamine B, SRB) in one or more systems; and/or >50% reduction in PBMC viability. […]
# Alamar Blue assays were used to determine the viability of non-adherent PBMCs in the assay systems, and are based on the conversion of resazurin to resorufin via the reduction reactions of metabolically active cells. […] Upon entering cells, resazurin is reduced to resorufin which produces very bright red fluorescence. Viable cells continuously convert resazurin to resorufin, thereby generating a quantitative measure of viability and cytotoxicity. The amount of fluorescence produced is proportional to the number of living cells. […]
# [3] = test system: primary human cells (HDFSAg, HDF3CGF, KF3CT, HDFLPS systems); assay: Study CSM003-01-b: biomarker readouts in primary human cell systems, compounds in PBS; details: for pattern of immune responses in HDFSAg: HDFSAg system
# Experimental: The following compounds were screened in the assay system at the noted concentrations to test for anti-proliferative, inflammation-related, immunomodulatory, tissue remodeling and hemostasis-related activities at the noted concentrations (Table 4). All test compounds were dissolved in phosphate buffered saline (PBS).
# (§2) The following primary human cells were used as test systems: HDFSAg (dermal fibroblasts), HDF3CGF (dermal fibroblasts); KF3CT (keratinocytes+dermal fibroblasts) and HDFLPS (dermal fibroblasts+peripheral blood mononuclear cells).
# [4] = test system: endothelial cells, T cells, B cells, coronary artery smooth muscle cells and fibroblasts; assay: Study CSM001-01-b: anti-proliferative activity; type: cell-based, human; details: DMSO
# Experimental: as §1
# [5] = test system: endothelial cells, T cells, coronary artery smooth muscle cells and fibroblasts; assay: Study CSM002-01-b: anti-proliferative activity; type: cell-based, human; details: PBS
# fibroblasts = assay: Study CSM003-01-b: anti-proliferative activity; type: cell-based, human; details: PBS, anhydrous
# Experimental: All test compounds were dissolved in phosphate buffered saline (PBS).
# as §2
smiles,measurement,setting,value
CC(=O)N[C@@H](CS)C(=O)O [N-acetyl-L-cysteine],Esel,[1]; inflammation-related activity,decreased
same,IL1α,[1]; inflammation-related activity,decreased
same,IL-6,[1]; inflammation-related activity,decreased
same,IL-8,[1]; inflammation-related activity,decreased
same,IP-10,[1]; inflammation-related activity,decreased
same,ITAC,[1]; inflammation-related activity,decreased
same,sTNFα,[1]; inflammation-related activity,decreased
same,Col-I,[1]; tissue remodeling activity,increased
same,EGFR,[1]; tissue remodeling activity,decreased
same,MMP-3,[1]; tissue remodeling activity,increased
same,tPA,[1]; tissue remodeling activity,modulated
same,αSMA,[1]; tissue remodeling activity,increased
same,CD40,[2]; immunomodulatory activity,decreased
same,sIL-17A,[2]; immunomodulatory activity,decreased
same,Eotaxin-3,[2]; inflammation-related activity,decreased
same,IL-6,[2]; inflammation-related activity,increased
same,IL-8,[2]; inflammation-related activity,modulated
same,IP-10,[2]; inflammation-related activity,decreased
same,MIG,[2]; inflammation-related activity,decreased
same,sTNFα,[2]; inflammation-related activity,decreased
same,Collagen-I,[2]; tissue remodeling activity,increased
same,EGFR,[2]; tissue remodeling activity,decreased
same,Keratin 8/18,[2]; tissue remodeling activity,increased
same,MMP-1,[2]; tissue remodeling activity,increased
same,MMP-3,[2]; tissue remodeling activity,increased
same,MMP-9,[2]; tissue remodeling activity,modulated
same,PAI-I,[2]; tissue remodeling activity,increased
same,TIMP-I,[2]; tissue remodeling activity,increased
same,tPA,[2]; tissue remodeling activity,increased
same,uPAR,[2]; tissue remodeling activity,increased
same,overt cytotoxicity,primary human cells,overtly toxic in multiple systems at the top two concentrations tested
O.O.O.O.O.O.[Cl-].[Cl-].[Sr+2] [Strontium chloride hexahydrate],pattern of immune responses in HDFSAg,[3],enhanced immune responses
same,sIL-6,[3]; immunomodulatory activity,increased
same,sIL-10,[3]; immunomodulatory activity,increased
same,sIL-17A,[3]; immunomodulatory activity,increased
same,sIL-17F,[3]; immunomodulatory activity,increased
"O=[N+]([O-])[O-].O=[N+]([O-])[O-].[Sr+2] [Strontium nitrate, Strontium Nitrate]",pattern of immune responses in HDFSAg,[3],enhanced immune responses
same,sIL-2,[3]; immunomodulatory activity,increased
same,sIL-6,[3]; immunomodulatory activity,increased
same,sIL-10,[3]; immunomodulatory activity,increased
same,MCP-1,[3]; inflammation-related activity,decreased
same,TF,[1],decreased
same,TM,[1],increased
same,CD40,[1]; immunomodulatory activity,increased
same,M-CSF,[1]; immunomodulatory activity,decreased
same,ICAM-1,[1]; inflammation-related activity,increased
same,IL1α,[1]; inflammation-related activity,modulated
same,IP-10,[1]; inflammation-related activity,decreased
same,MIP-1,[1]; inflammation-related activity,decreased
same,VCAM-1,[1]; inflammation-related activity,increased
same,sTNFα,[1]; inflammation-related activity,decreased
same,Ker 8/18,[1]; tissue remodeling activity,increased
same,MMP-1,[1]; tissue remodeling activity,increased
same,MMP-9,[1]; tissue remodeling activity,increased
same,tPA,[1]; tissue remodeling activity,increased
same,uPAR,[1]; tissue remodeling activity,increased
same,TF,[2]; hemostasis-related activity,increased
same,TM,[2]; hemostasis-related activity,increased
same,HLA-DR,[2]; immunomodulatory activity,decreased
same,M-CSF,[2]; immunomodulatory activity,increased
same,sIL-6,[2]; immunomodulatory activity,decreased
same,sIL-17A,[2]; immunomodulatory activity,decreased
same,sIL-17F,[2]; immunomodulatory activity,decreased
same,sIgG,[2]; immunomodulatory activity,decreased
same,Eotaxin-3,[2]; inflammation-related activity,decreased
same,I-TAC,[2]; inflammation-related activity,decreased
same,IL-1α,[2]; inflammation-related activity,decreased
same,IL-8,[2]; inflammation-related activity,decreased
same,IP-10,[2]; inflammation-related activity,decreased
same,MCP-1,[2]; inflammation-related activity,decreased
same,SAA,[2]; inflammation-related activity,decreased
same,VCAM-1,[2]; inflammation-related activity,decreased
same,sPGE2,[2]; inflammation-related activity,increased
same,sTNFα,[2]; inflammation-related activity,decreased
same,Keratin 8/18,[2]; tissue remodeling activity,increased
same,MMP-1,[2]; tissue remodeling activity,decreased
same,MMP-3,[2]; tissue remodeling activity,increased
same,MMP-9,[2]; tissue remodeling activity,decreased
same,PAI-I,[2]; tissue remodeling activity,decreased
same,TIMP-2,[2]; tissue remodeling activity,increased
same,uPAR,[2]; tissue remodeling activity,decreased
same,proliferation of B cells,[4],anti-proliferative
same,proliferation of T cells,[4],anti-proliferative
same,proliferation of coronary artery smooth muscle cells,[4],anti-proliferative
same,proliferation of endothelial cells,[4],anti-proliferative
same,proliferation of fibroblasts,[4],anti-proliferative
same,proliferation of coronary artery smooth muscle cells,[5],anti-proliferative
same,proliferation of fibroblasts,fibroblasts,anti-proliferative to fibroblasts at the top concentration only
CC(O)CC(=O)O (stereo not drawn) [beta hydroxybutyric acid],TF,[1],increased
same,TM,[1],increased
same,CD40,[1]; immunomodulatory activity,increased
same,CD69,[1]; immunomodulatory activity,increased
same,M-CSF,[1]; immunomodulatory activity,increased
same,sIL-6,[1]; immunomodulatory activity,increased
same,IL1α,[1]; inflammation-related activity,decreased
same,IL-8,[1]; inflammation-related activity,decreased
same,MCP-1,[1]; inflammation-related activity,increased
same,sTNFα,[1]; inflammation-related activity,decreased
same,Col-I,[1]; tissue remodeling activity,increased
same,MMP-3,[1]; tissue remodeling activity,increased
same,MMP-9,[1]; tissue remodeling activity,decreased
same,αSMA,[1]; tissue remodeling activity,increased
same,M-CSF,[2]; immunomodulatory activity,increased
same,sIgG,[2]; immunomodulatory activity,decreased
same,ICAM-1,[2]; inflammation-related activity,increased
same,IL-1α,[2]; inflammation-related activity,increased
same,IL-8,[2]; inflammation-related activity,decreased
same,MIG,[2]; inflammation-related activity,decreased
same,VCAM-1,[2]; inflammation-related activity,decreased
same,Collagen-I,[2]; tissue remodeling activity,increased
same,EGFR,[2]; tissue remodeling activity,increased
same,MMP-9,[2]; tissue remodeling activity,modulated
same,PAI-I,[2]; tissue remodeling activity,modulated
same,tPA,[2]; tissue remodeling activity,increased
same,uPA,[2]; tissue remodeling activity,increased
same,overt cytotoxicity,primary human cells,overtly toxic in multiple systems at the top concentration tested
same,proliferation of T cells,[4],anti-proliferative
same,proliferation of endothelial cells,[4],anti-proliferative
same,proliferation of T cells,[5],anti-proliferative
same,proliferation of coronary artery smooth muscle cells,[5],anti-proliferative
same,proliferation of endothelial cells,[5],anti-proliferative
"O=C(O)c1cc(O)c(O)c(O)c1 [gallic acid, 3,4,5-trihydroxy benzoic acid]",M-CSF,[1]; immunomodulatory activity,modulated
same,IL-8,[1]; inflammation-related activity,increased
same,IP-10,[1]; inflammation-related activity,increased
same,ITAC,[1]; inflammation-related activity,decreased
same,VCAM-1,[1]; inflammation-related activity,decreased
same,sPGE2,[1]; inflammation-related activity,increased
same,sTNFα,[1]; inflammation-related activity,decreased
same,MMP-9,[1]; tissue remodeling activity,increased
same,tPA,[1]; tissue remodeling activity,increased
same,uPA,[1]; tissue remodeling activity,increased
same,αSMA,[1]; tissue remodeling activity,increased
same,M-CSF,[2]; immunomodulatory activity,decreased
same,sIL-2,[2]; immunomodulatory activity,decreased
same,sIL-10,[2]; immunomodulatory activity,increased
same,sIL-17A,[2]; immunomodulatory activity,decreased
same,Eotaxin-3,[2]; inflammation-related activity,decreased
same,I-TAC,[2]; inflammation-related activity,decreased
same,ICAM-1,[2]; inflammation-related activity,decreased
same,IL-1α,[2]; inflammation-related activity,decreased
same,IL-8,[2]; inflammation-related activity,increased
same,IP-10,[2]; inflammation-related activity,decreased
same,MIG,[2]; inflammation-related activity,decreased
same,MIP-1,[2]; inflammation-related activity,increased
same,SAA,[2]; inflammation-related activity,decreased
same,VCAM-1,[2]; inflammation-related activity,modulated
same,sTNFα,[2]; inflammation-related activity,decreased
same,Collagen-III,[2]; tissue remodeling activity,increased
same,Collagen-IV,[2]; tissue remodeling activity,increased
same,EGFR,[2]; tissue remodeling activity,increased
same,Keratin 8/18,[2]; tissue remodeling activity,decreased
same,MMP-1,[2]; tissue remodeling activity,increased
same,MMP-3,[2]; tissue remodeling activity,increased
same,MMP-9,[2]; tissue remodeling activity,decreased
same,PAI-I,[2]; tissue remodeling activity,modulated
same,bFGF,[2]; tissue remodeling activity,decreased
same,tPA,[2]; tissue remodeling activity,increased
same,α-SMA,[2]; tissue remodeling activity,increased
same,proliferation of T cells,[4],antiproliferative
same,proliferation of coronary artery smooth muscle cells,[4],antiproliferative
same,proliferation of endothelial cells,[4],antiproliferative
same,proliferation of fibroblasts,[4],antiproliferative
same,proliferation of T cells,[5],anti-proliferative
same,proliferation of coronary artery smooth muscle cells,[5],anti-proliferative
same,proliferation of endothelial cells,[5],anti-proliferative
same,proliferation of fibroblasts,[5],anti-proliferative

# — patent US20210163308A1, “COMPOSITIONS AND METHODS FOR THE MODULATION OF CYTOKINES” (GALLEON LABS LLC, priority 2018, published 2021)
